Assay results published in patent publication US9914710B2, “Bicyclic arylcarboxylic acid amides and their use as herbicides” (BAYER CROPSCIENCE AKTIENGESELLSCHAFT, priority 2014, dated 2018).

Tests used:
Assay in all cases: Post-emergence herbicidal action against harmful plants
Format in all cases: in vivo
Conditions in all cases: one-leaf stage, application rate 80 g/ha, assessed visually after about 3 weeks vs untreated controls
Veronica persica = system: Veronica persica
Protocol: (§1) Seeds of monocotyledonous and dicotyledonous weed and crop plants are laid out in sandy loam in wood-fiber pots, covered with soil and cultivated in a greenhouse under good growth conditions. 2 to 3 weeks after sowing, the test plants are treated at the one-leaf stage. The compounds of the invention, formulated in the form of wettable powders (WP) or as emulsion concentrates (EC), are then sprayed onto the green parts of the plants in the form of an aqueous suspension or emulsion at a water application rate equating to 600 to 800 I/ha, with addition of 0.2% wetting agent. After the test plants have been left to stand in the greenhouse under optimal growth conditions for about 3 weeks, the action of the preparations is assessed visually in comparison to untreated controls (herbicidal action in percent (%): 100% activity=the plants have died, 0% activity=like control plants). For example, compounds no. 1-18, 1-19, 1-20, 1-21, 1-23, 1-25, 1-26, 1-27, 1-30, 1-32, 1-51, 1-52, 1-53, 1-63, 1-65, 1-69, 1-70, 1-75, 1-76, 1-77, 1-78, 1-79, 1-80, 1-84, 2-18, 2-20 and 4-18 at an application rate of 80 g/ha each have 100% efficacy against Stellaria media, Veronica persica and Viola tricolor.

Viola tricolor = system: Viola tricolor
Protocol: as §1

Stellaria media = system: Stellaria media
Protocol: as §1

Cn1nnnc1NC(=O)c1cc2c(c(S(C)(=O)=O)c1Cl)CCCC2 [1-53]
100%: efficacy (herbicidal action in percent) against Veronica persica (Veronica persica) | efficacy (herbicidal action in percent) against Viola tricolor (Viola tricolor) | efficacy (herbicidal action in percent) against Stellaria media (Stellaria media)

Cn1ncnc1NC(=O)c1cc2c(c(S(C)(=O)=O)c1Cl)CCC2 [2-20]
100%: efficacy (herbicidal action in percent) against Veronica persica (Veronica persica) | efficacy (herbicidal action in percent) against Viola tricolor (Viola tricolor) | efficacy (herbicidal action in percent) against Stellaria media (Stellaria media)

Cn1nnnc1NC(=O)c1cc2c(c([S+](C)[O-])c1Br)CCC2 (racemic) [1-76]
100%: efficacy (herbicidal action in percent) against Veronica persica (Veronica persica) | efficacy (herbicidal action in percent) against Viola tricolor (Viola tricolor) | efficacy (herbicidal action in percent) against Stellaria media (Stellaria media)

CSc1c(Cl)c(C(=O)Nc2ncnn2C)cc2c1CCC2 [2-18]
100%: efficacy (herbicidal action in percent) against Veronica persica (Veronica persica) | efficacy (herbicidal action in percent) against Viola tricolor (Viola tricolor) | efficacy (herbicidal action in percent) against Stellaria media (Stellaria media)

CSc1c(Cl)c(C(=O)Nc2nnnn2C)cc2c1CCC2 [1-18]
100%: efficacy (herbicidal action in percent) against Veronica persica (Veronica persica) | efficacy (herbicidal action in percent) against Viola tricolor (Viola tricolor) | efficacy (herbicidal action in percent) against Stellaria media (Stellaria media)

CCn1nnnc1NC(=O)c1cc2c(c(S(C)(=O)=O)c1Cl)CCC2 [1-26]
100%: efficacy (herbicidal action in percent) against Veronica persica (Veronica persica) | efficacy (herbicidal action in percent) against Viola tricolor (Viola tricolor) | efficacy (herbicidal action in percent) against Stellaria media (Stellaria media)

CSc1c(Cl)c(C(=O)Nc2nnc(C)o2)cc2c1CCC2 [4-18]
100%: efficacy (herbicidal action in percent) against Veronica persica (Veronica persica) | efficacy (herbicidal action in percent) against Viola tricolor (Viola tricolor) | efficacy (herbicidal action in percent) against Stellaria media (Stellaria media)

CSc1c(Cl)c(C(=O)Nc2nnnn2C)cc2c1C(=O)CC2 [1-30]
100%: efficacy (herbicidal action in percent) against Veronica persica (Veronica persica) | efficacy (herbicidal action in percent) against Viola tricolor (Viola tricolor) | efficacy (herbicidal action in percent) against Stellaria media (Stellaria media)

Cn1nnnc1NC(=O)c1cc2c(c(S(C)(=O)=O)c1Cl)OCC2 [1-65]
100%: efficacy (herbicidal action in percent) against Veronica persica (Veronica persica) | efficacy (herbicidal action in percent) against Viola tricolor (Viola tricolor) | efficacy (herbicidal action in percent) against Stellaria media (Stellaria media)

Cn1nnnc1NC(=O)c1cc2c(c(S(C)(=O)=O)c1Br)CCC2 [1-77]
100%: efficacy (herbicidal action in percent) against Veronica persica (Veronica persica) | efficacy (herbicidal action in percent) against Viola tricolor (Viola tricolor) | efficacy (herbicidal action in percent) against Stellaria media (Stellaria media)

CSc1c(Cl)c(C(=O)Nc2nnnn2C)cc2c1OCC2 [1-63]
100%: efficacy (herbicidal action in percent) against Veronica persica (Veronica persica) | efficacy (herbicidal action in percent) against Viola tricolor (Viola tricolor) | efficacy (herbicidal action in percent) against Stellaria media (Stellaria media)

Cn1nnnc1NC(=O)c1cc2c(c(S(C)(=O)=O)c1Cl)CCC2 [1-20]
100%: efficacy (herbicidal action in percent) against Veronica persica (Veronica persica) | efficacy (herbicidal action in percent) against Viola tricolor (Viola tricolor) | efficacy (herbicidal action in percent) against Stellaria media (Stellaria media)

CSc1c(Br)c(C(=O)Nc2nnnn2C)cc2c1CCC2 [1-75]
100%: efficacy (herbicidal action in percent) against Veronica persica (Veronica persica) | efficacy (herbicidal action in percent) against Viola tricolor (Viola tricolor) | efficacy (herbicidal action in percent) against Stellaria media (Stellaria media)

CCn1nnnc1NC(=O)c1cc2c(c([S+](C)[O-])c1Cl)CCC2 (racemic) [1-25]
100%: efficacy (herbicidal action in percent) against Veronica persica (Veronica persica) | efficacy (herbicidal action in percent) against Viola tricolor (Viola tricolor) | efficacy (herbicidal action in percent) against Stellaria media (Stellaria media)

CCSc1c(Cl)c(C(=O)Nc2nnnn2CC)cc2c1CCC2 [1-27]
100%: efficacy (herbicidal action in percent) against Veronica persica (Veronica persica) | efficacy (herbicidal action in percent) against Viola tricolor (Viola tricolor) | efficacy (herbicidal action in percent) against Stellaria media (Stellaria media)

CCSc1c(Br)c(C(=O)Nc2nnnn2C)cc2c1CCC2 [1-78]
100%: efficacy (herbicidal action in percent) against Veronica persica (Veronica persica) | efficacy (herbicidal action in percent) against Viola tricolor (Viola tricolor) | efficacy (herbicidal action in percent) against Stellaria media (Stellaria media)

Cn1nnnc1NC(=O)c1cc2c(c(S(C)(=O)=O)c1Cl)C(=O)CC2 [1-32]
100%: efficacy (herbicidal action in percent) against Veronica persica (Veronica persica) | efficacy (herbicidal action in percent) against Viola tricolor (Viola tricolor) | efficacy (herbicidal action in percent) against Stellaria media (Stellaria media)

Cn1nnnc1NC(=O)c1cc2c(c([S+](C)[O-])c1Cl)CCCC2 (racemic) [1-52]
100%: efficacy (herbicidal action in percent) against Veronica persica (Veronica persica) | efficacy (herbicidal action in percent) against Viola tricolor (Viola tricolor) | efficacy (herbicidal action in percent) against Stellaria media (Stellaria media)

Cn1nnnc1NC(=O)c1cc2c(c([S+](C)[O-])c1Cl)CCC2 (racemic) [1-19]
100%: efficacy (herbicidal action in percent) against Veronica persica (Veronica persica) | efficacy (herbicidal action in percent) against Viola tricolor (Viola tricolor) | efficacy (herbicidal action in percent) against Stellaria media (Stellaria media)

CSc1c(Cl)c(C(=O)Nc2nnnn2C)cc2c1CCO2 [1-69]
100%: efficacy (herbicidal action in percent) against Veronica persica (Veronica persica) | efficacy (herbicidal action in percent) against Viola tricolor (Viola tricolor) | efficacy (herbicidal action in percent) against Stellaria media (Stellaria media)

CC[S+]([O-])c1c(Br)c(C(=O)Nc2nnnn2C)cc2c1CCC2 (racemic) [1-79]
100%: efficacy (herbicidal action in percent) against Veronica persica (Veronica persica) | efficacy (herbicidal action in percent) against Viola tricolor (Viola tricolor) | efficacy (herbicidal action in percent) against Stellaria media (Stellaria media)

CCS(=O)(=O)c1c(Br)c(C(=O)Nc2nnnn2C)cc2c1CCC2 [1-80]
100%: efficacy (herbicidal action in percent) against Veronica persica (Veronica persica) | efficacy (herbicidal action in percent) against Viola tricolor (Viola tricolor) | efficacy (herbicidal action in percent) against Stellaria media (Stellaria media)

CSc1c(Cl)c(C(=O)Nc2nnnn2C)cc2c1CCCC2 [1-51, N-(1-methyltetrazol-5-yl)-3-chloro-4-(methylthio)-5,6,7,8-tetrahydronaphthalene-2-carboxamide]
100%: efficacy (herbicidal action in percent) against Veronica persica (Veronica persica) | efficacy (herbicidal action in percent) against Viola tricolor (Viola tricolor) | efficacy (herbicidal action in percent) against Stellaria media (Stellaria media)

CCS(=O)(=O)c1c(Cl)c(C(=O)Nc2nnnn2C)cc2c1CCC2 [1-23]
100%: efficacy (herbicidal action in percent) against Veronica persica (Veronica persica) | efficacy (herbicidal action in percent) against Viola tricolor (Viola tricolor) | efficacy (herbicidal action in percent) against Stellaria media (Stellaria media)

Cn1nnnc1NC(=O)c1cc2c(c([S+](C)[O-])c1Cl)CCO2 (racemic) [1-70]
100%: efficacy (herbicidal action in percent) against Veronica persica (Veronica persica) | efficacy (herbicidal action in percent) against Viola tricolor (Viola tricolor) | efficacy (herbicidal action in percent) against Stellaria media (Stellaria media)

CCSc1c(Cl)c(C(=O)Nc2nnnn2C)cc2c1CCC2 [1-21]
100%: efficacy (herbicidal action in percent) against Veronica persica (Veronica persica) | efficacy (herbicidal action in percent) against Viola tricolor (Viola tricolor) | efficacy (herbicidal action in percent) against Stellaria media (Stellaria media)

CCSc1c(Br)c(C(=O)Nc2nnnn2CC)cc2c1CCC2 [1-84]
100%: efficacy (herbicidal action in percent) against Veronica persica (Veronica persica) | efficacy (herbicidal action in percent) against Viola tricolor (Viola tricolor) | efficacy (herbicidal action in percent) against Stellaria media (Stellaria media)
